In US10441597B2, “Ciclesonide for the treatment of airway disease in horses” (Boehringer Ingelheim Vetmedica GmbH, priority 2012, dated 2019):
Entries after “also recorded” stand apart in the source; their conditions may differ.

Experiments:
[1] = test system: segmented neutrophils and lymphocytes; test: Moldy hay challenge study in RAO horses: segmented neutrophil and lymphocyte counts; assay type: in vivo, horse; details: for Lymphocytes / Segmented neutrophils: nozzle B, n=7 mean
Description: (§1) The commercially available […]® is used in the study.
The segmented neutrophil counts and the lymphocyte counts are determined in the studies above: ciclesonide treatment versus dexamethasone treatment.

cortisol levels = details: humans; after aerosol administration/inhalation; cited from earlier work
IAD horse = test: Impulse oscillometry lung function in one IAD horse (4th ciclesonide study); assay type: in vivo; details: 2700 μg ciclesonide twice daily for 14 days
Text: Ciclesonide is investigated in a baseline controlled, blinded study examining one (1) IAD horse. […] Lung function variables using the impulse oscillometry system (respiratory resistance (Rrs) and reactance (Xrs) are examined during the study.

RAO horses [2] = test: Moldy hay challenge study in RAO horses: clinical score (breathing effort score, weighted clinical score); assay type: in vivo, horse
Text: as §1

RAO horses [3] = test: Moldy hay challenge study in RAO horses: lung function variables (transpulmonary pressure, lung resistance, lung elastance); assay type: in vivo, horse
Text: as §1

[4] = Concentration of ciclesonide and metabolite in equine plasma (HPLC-MS/MS); details: for Ciclesonide concentration in equine plasma: 2nd ciclesonide study, n=8 mean
serum cortisol = test: Moldy hay challenge study in RAO horses: serum cortisol; details: for Serum cortisol levels: any measured time point
[5] = 1st ciclesonide study, ciclesonide 450/900/1800 μg/horse twice daily
[6] = 2nd ciclesonide study, ciclesonide 1687.5 B/2700 A/2700 B μg twice daily
[7] = 3rd ciclesonide study, ciclesonide groups
[8] = D 0, 2700 μg ciclesonide/horse twice daily inhaled 14 days, 3rd ciclesonide study
[9] = D 0, 3712.5 μg ciclesonide/horse once daily in the evening inhaled 14 days, 3rd ciclesonide study
[10] = D 0, 3712.5 μg ciclesonide/horse once daily in the morning inhaled 14 days, 3rd ciclesonide study
[11] = D 14, 2700 μg ciclesonide/horse twice daily inhaled 14 days, 3rd ciclesonide study
[12] = D 14, 3712.5 μg ciclesonide/horse once daily in the evening inhaled 14 days, 3rd ciclesonide study
[13] = D 14, 3712.5 μg ciclesonide/horse once daily in the morning inhaled 14 days, 3rd ciclesonide study
[14] = D 21, 2700 μg ciclesonide/horse twice daily inhaled 14 days, 3rd ciclesonide study
[15] = D 21, 3712.5 μg ciclesonide/horse once daily in the evening inhaled 14 days, 3rd ciclesonide study
[16] = D 21, 3712.5 μg ciclesonide/horse once daily in the morning inhaled 14 days, 3rd ciclesonide study
[17] = frequencies 0.2 to 2 Hz, in contrast to pretreatment values

For CC(C)C(=O)OCC(=O)[C@@]12O[C@H](C3CCCCC3)O[C@@H]1C[C@H]1[C@@H]3CCC4=CC(=O)C=C[C@]4(C)[C@H]3[C@@H](O)C[C@@]12C [ciclesonide, (11β,16α)-16,17-[[(R)-Cyclohexylmethylene]bis(oxy)]-11-hydroxy-21-(2-methyl-1-oxopropoxy)pregna-1,4-diene-3,20-dione], the “Counts of lymphocytes after administration” value (“Counts of lymphocytes” below) [1, 5] was “no change”, the “Counts of segmented neutrophils after administration” value (shortened to “Counts of segmented neutrophils”) [1, 5] was “no or minor increase” and the “Counts of lymphocytes” value [1, 6] was “no change”. The “Counts of segmented neutrophils” value [1, 6] was “no or minor increase”, the “Counts of lymphocytes” value [1, 7] was “no change” and the “Counts of segmented neutrophils” value [1, 7] was “no or minor increase”. The Lymphocytes [1, 8] was 2.55e+09 L⁻¹, the Segmented neutrophils [1, 8] was 3.97e+09 L⁻¹ and the Lymphocytes [1, 9] was 2.55e+09 L⁻¹. It also gave a Segmented neutrophils [1, 9] of 3.73e+09 L⁻¹, a Lymphocytes [1, 10] of 2.21e+09 L⁻¹ and a Segmented neutrophils [1, 10] of 4.37e+09 L⁻¹. For the same compound, the Lymphocytes [1, 11] was 2.54e+09 L⁻¹, the Segmented neutrophils [1, 11] was 4.57e+09 L⁻¹ and the Lymphocytes [1, 12] was 2.43e+09 L⁻¹. It also gave a Segmented neutrophils [1, 12] of 4.37e+09 L⁻¹, a Lymphocytes [1, 13] of 2.48e+09 L⁻¹ and a Segmented neutrophils [1, 13] of 4.45e+09 L⁻¹. It also gave a Lymphocytes [1, 14] of 2.49e+09 L⁻¹, a Segmented neutrophils [1, 14] of 3.47e+09 L⁻¹ and a Lymphocytes [1, 15] of 2.48e+09 L⁻¹. The Segmented neutrophils [1, 15] was 3.41e+09 L⁻¹, the Lymphocytes [1, 16] was 2.66e+09 L⁻¹ and the Segmented neutrophils [1, 16] was 3.75e+09 L⁻¹. The “Alteration in the immune system measured by neutrophilia and lymphopenia” value ([1]; ciclesonide, treatment for two weeks with different dose levels, 1st and 2nd ciclesonide studies (Table 2)) was “no alteration; also recorded: not observed”, the Measured cortisol levels (cortisol levels) was “no or clinically not relevant cortisol suppression” and the “Mean respiratory reactance in inspiration versus expiration” value (IAD horse; [17]) was “not different”. For the same compound, the “Mean respiratory resistance in inspiration versus expiration” value (IAD horse; [17]) was “not different”, the “Mean respiratory resistance (Rrs) compared to pretreatment values” (IAD horse; frequencies 0.2 to 20 Hz, mean of three measurements) was “decreased” and the “Mean respiratory reactance (Xrs) compared to pretreatment values” (IAD horse; frequencies 5 to 10 Hz, mean of three measurements) was “decreased”. For the same compound, the Breathing effort score (RAO horses [2]; 1st ciclesonide study, ciclesonide 450/900/1800 μg/horse twice daily, any measured time point) was “no significant changes”, the “Weighted clinical score compared to pretreatment values” (RAO horses [2]; 2nd ciclesonide study, all three ciclesonide groups, after 14 days, p=0.0001 to p<0.0001) was “significantly reduced” and the “Difference in weighted clinical score versus dexamethasone group” value (RAO horses [2]; 2nd ciclesonide study, ciclesonide treatment groups, after 14 days) was “no significant difference”. For the same compound, the “Weighted clinical score compared to pretreatment values” (RAO horses [2]; 3rd ciclesonide study, ciclesonide 2700 μg twice daily, after 7 and 14 days, p=0.0001 (7 days), p=0.0003 (14 days)) was “significantly reduced”, the “Difference in weighted clinical score versus placebo group” value (RAO horses [2]; 3rd ciclesonide study, ciclesonide treatment groups, after 14 days, p=0.0002 (2700 μg, 3712.5 μg evening), p=0.0006 (3712.5 μg morning)) was “significant difference” and the “ΔPL and EL compared to pretreatment values” (RAO horses [3]; 1st ciclesonide study, ciclesonide 1800 μg/horse twice daily inhaled (only the highest dose), after 14 days, p=0.0005 and p=0.0004) was “statistically significant reduction”. The “Difference in ΔPL and EL versus dexamethasone group” value (RAO horses [3]; 1st ciclesonide study, ciclesonide 1800 μg/horse twice daily, after 14 days) was “no significant difference”, the “All lung function variables compared to pretreatment values” (RAO horses [3]; 2nd ciclesonide study, all ciclesonide groups (1687.5 μg nozzle B/2700 μg nozzle A/2700 μg nozzle B twice daily), after 14 days, p=0.0009 to p<0.0001) was “significantly reduced” and the “Difference in lung function variables versus dexamethasone group” value (RAO horses [3]; 2nd ciclesonide study, all ciclesonide groups, after 7 or 14 days) was “no significant difference”. The “Difference in lung function variables (ΔPL, RL) versus placebo group” value (RAO horses [3]; 3rd ciclesonide study, all ciclesonide groups, after 14 days, p<0.0001 (2700 μg, 3712.5 μg evening), p=0.0005 ΔPL / p=0.0003 RL (3712.5 μg morning)) was “significant difference”, the “Change in ΔPL compared to pretreatment values” (RAO horses [3]; 3rd ciclesonide study, ciclesonide 2700 μg twice daily, after 7 days, p<0.0001) was “significantly reduced” and the “ΔPL and RL compared to pretreatment values” (RAO horses [3]; 3rd ciclesonide study, ciclesonide 2700 μg twice daily, after 14 days, p<0.0001) was “significantly reduced”. For the same compound, the “Reduction of ΔPL and RL compared to pretreatment values” (RAO horses [3]; 3rd ciclesonide study, ciclesonide 2700 μg, after 7 days, p<0.0001) was “statistically significant”, the “Reduction of RL compared to pretreatment values” (RAO horses [3]; 3rd ciclesonide study, ciclesonide 2700 μg, after 7 days, p=0.0002) was “statistically significant” and the “Change in ΔPL compared to pretreatment values” (RAO horses [3]; 3rd ciclesonide study, ciclesonide 3712.5 μg once daily in the evening, after 7 days, p=0.001) was “significantly reduced”. The “RL compared to pretreatment values” (RAO horses [3]; 3rd ciclesonide study, ciclesonide 3712.5n (once daily in the evening), after 14 days, p=0.0001) was “significantly reduced”, the “Lung function variables compared to pretreatment values and to placebo group” value (RAO horses [3]; 3rd ciclesonide study, ciclesonide treatment groups, after 14 days) was “significantly reduced” and the “Efficacy relative to dexamethasone measured in lung function variables and clinical score” value (RAO horses [3]; moldy hay challenge model, RESPIMAT inhaler with Equine Inhaler device, examples 1 and 3) was “comparable efficacy”. For the same compound, the “Ciclesonide concentration in equine plasma” value (shortened to “Ciclesonide concentration”) ([4]; day 1, 0 min, ciclesonide 2700 μg nozzle B twice daily inhaled) was <0.500 nmol/L, the “Ciclesonide concentration” value ([4]; day 1, 1 h, ciclesonide 2700 μg nozzle B twice daily inhaled) was <0.500 nmol/L and the “Ciclesonide concentration” value ([4]; day 1, 2 h, ciclesonide 1687.5 μg nozzle B twice daily inhaled) was <0.500 nmol/L. The “Ciclesonide concentration” value ([4]; day 1, 2 h, ciclesonide 2700 μg nozzle B twice daily inhaled) was <0.500 nmol/L, the “Ciclesonide concentration” value ([4]; day 1, 4 h, ciclesonide 1687.5 μg nozzle B twice daily inhaled) was <0.500 nmol/L and the “Ciclesonide concentration” value ([4]; day 1, 4 h, ciclesonide 2700 μg nozzle B twice daily inhaled) was <0.500 nmol/L. For the same compound, the “Ciclesonide concentration” value ([4]; day 11, 0 min, ciclesonide 2700 μg nozzle A twice daily inhaled) was <0.500 nmol/L, the “Ciclesonide concentration” value ([4]; day 11, 0 min, ciclesonide 2700 μg nozzle B twice daily inhaled) was <0.500 nmol/L and the “Ciclesonide concentration” value ([4]; day 11, 1 h, ciclesonide 2700 μg nozzle A twice daily inhaled) was <0.500 nmol/L. For the same compound, the “Ciclesonide concentration” value ([4]; day 11, 1 h, ciclesonide 2700 μg nozzle B twice daily inhaled) was <0.500 nmol/L, the “Ciclesonide concentration” value ([4]; day 11, 2 h, ciclesonide 2700 μg nozzle A twice daily inhaled) was <0.500 nmol/L and the “Ciclesonide concentration” value ([4]; day 11, 2 h, ciclesonide 2700 μg nozzle B twice daily inhaled) was <0.500 nmol/L. The “Ciclesonide concentration” value ([4]; day 11, 4 h, ciclesonide 2700 μg nozzle A twice daily inhaled) was <0.500 nmol/L, the “Ciclesonide concentration” value ([4]; day 11, 4 h, ciclesonide 2700 μg nozzle B twice daily inhaled) was <0.500 nmol/L and the “Conversion of ciclesonide into the effective molecule C21-C21-desisobutyrylciclesonide” value ([4]; in horses, example 5) was “can be converted”. The Serum cortisol levels (serum cortisol; 1st ciclesonide study, any ciclesonide group (450/900/1800 μg/horse twice daily)) was “no significant reduction”, the Serum cortisol levels (serum cortisol; 2nd ciclesonide study, any ciclesonide group (1687.5 B/2700 A/2700 B μg twice daily)) was “no significant reduction” and the Serum cortisol levels (serum cortisol; 3rd ciclesonide study, any ciclesonide group (2700 μg twice daily/3712.5 μg morning/3712.5 μg evening)) was “no significant reduction”. The “Cortisol level compared to values prior to treatment” value (serum cortisol; after administration of the highest ciclesonide dose, example 3) was “does not change significantly” and the “Serum cortisol level of horses” value (serum cortisol; ciclesonide, treatment for two weeks with different dose levels, Examples 2-3) was “no decrease”.
